Read-outs that look alike come from different tables or passages of the source.
How the values were obtained:
[1] = test system: P. aeruginosa ATCC 27853 ompH mutants EPIR32, EPIR36, EPIR38; test: microbe, parasite or virus in culture; type: cell-based, Pseudomonas aeruginosa
Experimental: (§1) MIC assays for potentiation of antimicrobial activity against P. aeruginosa were performed as described previously.

[2] = test system: P. aeruginosa; test: Effect of inoculum on levofloxacin potentiation (MIC); type: cell-based, Pseudomonas aeruginosa
Experimental: as §1

[3] = in vivo; details: female, CD-1, mouse, 30 mg/kg; for half-life: Plasma Half-life; for Vd: Plasma Vd
Experimental: The P. aeruginosa strain UNT034-1 (ATCC 27853) was used for infection studies. Female CD-1 mice (6–8 weeks old; 22 ± 2 g) were obtained from Envigo Laboratories (Indianapolis, IN, USA). All procedures were conducted in accordance with protocols approved by the University of North Texas Health Science Center (UNTHSC) Institutional Animal Care and Use Committee (protocol IACUC-2021-0003). Neutropenia was induced by intraperitoneal (i.p.) injection of cyclophosphamide (Cytoxan) at 150 mg/kg on day 4 and 100 mg/kg on day 1 before infection. Mice were anesthetized by i.p. injection of ketamine (40 mg/kg) and xylazine (6 mg/kg) and intranasally inoculated with 0.05 mL of the prepared P. aeruginosa suspension by placing droplets onto the nares and allowing inhalation. Following inoculation, mice were returned to cages for recovery. […] At predetermined time points (0.083, 0.25, 0.5, 1, 2, 4, 8, and 24 h), groups of three mice were euthanized by CO2 asphyxiation. Blood was collected by cardiac puncture into tubes containing EDTA or serum separator gel, centrifuged at 4 °C, and plasma or serum was harvested within 30 min of collection. Bronchoalveolar lavage fluid (BALF) was collected to determine drug concentrations at the site of infection. Briefly, 1.2 mL of sterile 0.9% NaCl was instilled into the lungs via the trachea and gently withdrawn. The epithelial lining fluid (ELF) dilution factor was determined by the blood urea nitrogen (BUN) method. Plasma and BALF samples were stored at −80 °C until analysis. Drug concentrations were quantified by LC-MS/MS using a Surveyor HPLC system coupled to a TSQ Quantum Ultra triple-quadrupole mass spectrometer (Thermo Scientific). Separation was achieved on a Phenomenex Kinetex PFP column (50 × 2.1 mm, 2.6 µm) with a mobile phase gradient of water (0.1% formic acid, A) and acetonitrile (0.1% formic acid, B) at 0.5 mL/min. The gradient proceeded from 10% to 90% B over 4 min, held for 1 min, and re-equilibrated to initial conditions. The column oven was maintained at 30 °C. […] Samples (50 µL plasma or BALF) were spiked with 10 µL of internal standard in methanol, precipitated with 150 µL acetonitrile, vortexed, sonicated for 10 min, and centrifuged at 14,500 rpm for 5 min. A 100 µL aliquot of the supernatant was transferred to autosampler vials, and 10 µL was injected for analysis. Concentration-time data were analyzed using noncompartmental methods (PK Solutions v2.0; Summit Research Services, Montrose, CO, USA). Parameters including area under the concentration-time curve (AUC0-t), maximum concentration (Cmax), time to Cmax (Tmax), apparent volume of distribution (Vd), systemic clearance (CL), and terminal half-life (t½) were calculated. Data are presented as means ± standard deviation (SD) for three animals per time point.

[4] = test system: P. aeruginosa ATCC 27853; type: cell-based, Pseudomonas aeruginosa
Experimental: OmpH is a homologous periplasmic chaperone that binds newly synthesized, unfolded outer membrane proteins (OMPs) and delivers them to the outer membrane for assembly by the BAM machinery, thereby preventing aggregation and facilitating proper membrane insertion.
Frequency-of-resistance studies were carried out as described previously.

[5] = test system: multidrug-resistant P. aeruginosa clinical isolates from Walter Reed Army Hospital; test: Levofloxacin MIC potentiation, WRAIR MRSN isolates; type: cell-based, Pseudomonas aeruginosa; details: for MIC: Pseudomonas aeruginosa
Experimental: as §1

[6] = Pseudomonas aeruginosa, ATCC27853, EPIR32
[7] = Pseudomonas aeruginosa, ATCC27853, EPIR38

## C[C@H]1COc2c(N3CCN(C)CC3)c(F)cc3c(=O)c(C(=O)O)cn1c23 [Levofloxacin, levofloxacin]
[1]; [6]
  MIC: 0.25 µg/mL
[1]; [7]
  MIC: 0.5 µg/mL
[2]; OD600 0.001, TXA11114 0 μg/mL
  LVX MIC: 1 µg/mL
[2]; OD600 0.025, TXA11114 0 μg/mL
  LVX MIC: 2 µg/mL
[3]; BALF Cmax
  Cmax: 2000 ng/mL
[3]; BALF Tmax
  Tmax: 15 min
[3]; Plasma AUC 0-t
  AUC(0-t): 32900 ng·h/mL
[3]; Plasma Cmax
  Cmax: 24100 ng/mL
[3]
  half-life: 88.8 min
  Vd: 1.89 L/kg
[3]; Plasma Tmax
  Tmax: 15 min
[3]; sc, BALF AUC 0-t
  AUC(0-t): 3900 ng·h/mL
[4]; ATCC 27853, levofloxacin 4× MIC (4 μg/mL) alone
  Frequency of Resistance: 3.80 × 10^−8
[5]; read-out: Levofloxacin MIC alone across panel, 20 MRSN isolates
  MIC: ≥ 8 µg/mL
[5]; read-out: Levofloxacin MIC, No EPI, MRSN #994
  MIC: 16 µg/mL
[5]; read-out: Levofloxacin MIC, No EPI, MRSN #1344
  MIC: 8 µg/mL
[5]; read-out: Levofloxacin MIC, No EPI, MRSN #3587
  MIC: 8 µg/mL
[5]; read-out: Levofloxacin MIC, No EPI, MRSN #3705
  MIC: 8 µg/mL
[5]; read-out: Levofloxacin MIC, No EPI, MRSN #5498
  MIC: 32 µg/mL
[5]; read-out: Levofloxacin MIC, No EPI, MRSN #5519
  MIC: 64 µg/mL
[5]; read-out: Levofloxacin MIC, No EPI, MRSN #5539
  MIC: 16 µg/mL
[5]; read-out: Levofloxacin MIC, No EPI, MRSN #6220
  MIC: 128 µg/mL
[5]; read-out: Levofloxacin MIC, No EPI, MRSN #6241
  MIC: 8 µg/mL
[5]; read-out: Levofloxacin MIC, No EPI, MRSN #6678
  MIC: 32 µg/mL
[5]; read-out: Levofloxacin MIC, No EPI, MRSN # 6695
  MIC: 8 µg/mL
[5]; read-out: Levofloxacin MIC, No EPI, MRSN #8130
  MIC: 16 µg/mL
[5]; read-out: Levofloxacin MIC, No EPI, MRSN #8139
  MIC: 8 µg/mL
[5]; read-out: Levofloxacin MIC, No EPI, MRSN #8912
  MIC: 16 µg/mL
[5]; read-out: Levofloxacin MIC, No EPI, MRSN #8914
  MIC: 16 µg/mL
[5]; read-out: Levofloxacin MIC, No EPI, MRSN #8915
  MIC: 128 µg/mL
[5]; read-out: Levofloxacin MIC, No EPI, MRSN #14981
  MIC: 16 µg/mL
[5]; read-out: Levofloxacin MIC, No EPI, MRSN #15566
  MIC: 8 µg/mL
[5]; read-out: Levofloxacin MIC, No EPI, MRSN #16344
  MIC: 8 µg/mL
[5]; read-out: Levofloxacin MIC, No EPI, MRSN #369569
  MIC: 32 µg/mL

## NCC(F)C[C@@H](N)CNC(=O)c1cc2ccc(-c3ccc(F)cc3)cc2[nH]1 (stereo partly drawn) [TXA11114, N-((2R)-2,5-diamino-4-fluoropentyl)-6-(4-fluorophenyl)-1H-indole-2-carboxamide]
[1]; EPI36
  Fold MIC reduction [LVX/EPI‐LVX]: 1 fold
  LVX MIC (+ EPI […]): 0.125
[1]; EPIR32
  Fold MIC reduction [LVX/EPI‐LVX]: 1 fold
  LVX MIC (+ EPI […]): 0.25
[1]; EPIR36, listed as TXA
  MIC: 200 µg/mL
[1]; [6]
  MIC: > 200 µg/mL
[1]; Pseudomonas aeruginosa, ATCC27853, EPIR36
  MIC: > 200 µg/mL
[1]; [7]
  MIC: 200 µg/mL
[2]; OD600 0.001, TXA11114 25 μg/mL
  LVX MIC: 0.031 µg/mL
  LVX MIC fold difference: 32 fold
[2]; OD600 0.001, TXA11114 50 μg/mL
  LVX MIC: 0.008 µg/mL
  LVX MIC fold difference: 128 fold
[2]; OD600 0.025, TXA11114 25 μg/mL
  LVX MIC: 0.063 µg/mL
  LVX MIC fold difference: 32 fold
[2]; OD600 0.025, TXA11114 50 μg/mL
  LVX MIC: 0.031 µg/mL
  LVX MIC fold difference: 64 fold
[2]; standard broth microdilution inoculum
  Minimal potentiation concentration (MPC): 6.25 µg/mL
[3]; BALF AUC 0-t
  AUC(0-t): 13200 ng·h/mL
[3]; BALF Tmax
  Tmax: 240 min
[3]; Plasma AUC 0-t
  AUC(0-t): 30700 ng·h/mL
[3]; Plasma Cmax
  Cmax: 13000 ng/mL
[3]
  half-life: 110 min
  Vd: 2.5 L/kg
[3]; Plasma Tmax
  Tmax: 4.98 min
[4]
  Frequency of Resistance: <1.04 × 10^−10
[4]; 1X-MIC (100 µg/mL), ATCC 27853
  FoR, resistance to TXA11114 alone: 1.8 × 10^−6
[4]; 4X-MIC (400 µg/mL), ATCC 27853
  FoR, resistance to TXA11114 alone: <3.09 × 10^−9
[5]; 20 MRSN isolates, + TXA11114 […]
  Levofloxacin MIC reductions across panel: 2- to 32 fold
[5]; 20 highly MDR MRSN isolates, + TXA11114
  Share of isolates shifted to levofloxacin susceptibility: 65%
[5]; MRSN #994
  Levofloxacin MIC fold difference, +TXA11114: 8 fold
  Levofloxacin MIC, +TXA11114: 2 µg/mL
[5]; MRSN #1344
  Levofloxacin MIC, +TXA11114: 0.25 µg/mL
[5]; MRSN #3587
  Levofloxacin MIC fold difference, +TXA11114: 8 fold
  Levofloxacin MIC, +TXA11114: 1 µg/mL
[5]; MRSN #3705
  Levofloxacin MIC fold difference, +TXA11114: 32 fold
  Levofloxacin MIC, +TXA11114: 0.25 µg/mL
[5]; MRSN #5498
  Levofloxacin MIC fold difference, +TXA11114: 8 fold
  Levofloxacin MIC, +TXA11114: 4 µg/mL
[5]; MRSN #5519
  Levofloxacin MIC fold difference, +TXA11114: 16 fold
  Levofloxacin MIC, +TXA11114: 4 µg/mL
[5]; MRSN #5539
  Levofloxacin MIC fold difference, +TXA11114: 2 fold
  Levofloxacin MIC, +TXA11114: 8 µg/mL
[5]; MRSN #6220
  Levofloxacin MIC fold difference, +TXA11114: 16 fold
  Levofloxacin MIC, +TXA11114: 8 µg/mL
[5]; MRSN #6241
  Levofloxacin MIC fold difference, +TXA11114: 4 fold
  Levofloxacin MIC, +TXA11114: 2 µg/mL
[5]; MRSN #6678
  Levofloxacin MIC fold difference, +TXA11114: 8 fold
  Levofloxacin MIC, +TXA11114: 4 µg/mL
[5]; MRSN # 6695
  Levofloxacin MIC fold difference, +TXA11114: 16 fold
  Levofloxacin MIC, +TXA11114: 0.5 µg/mL
[5]; MRSN #8130
  Levofloxacin MIC fold difference, +TXA11114: 8 fold
  Levofloxacin MIC, +TXA11114: 2 µg/mL
[5]; MRSN #8139
  Levofloxacin MIC fold difference, +TXA11114: 8 fold
  Levofloxacin MIC, +TXA11114: 1 µg/mL
[5]; MRSN #8912
  Levofloxacin MIC fold difference, +TXA11114: 8 fold
  Levofloxacin MIC, +TXA11114: 2 µg/mL
[5]; MRSN #8914
  Levofloxacin MIC fold difference, +TXA11114: 8 fold
  Levofloxacin MIC, +TXA11114: 2 µg/mL
[5]; MRSN #8915
  Levofloxacin MIC fold difference, +TXA11114: 2 fold
  Levofloxacin MIC, +TXA11114: 64 µg/mL
[5]; MRSN #14981
  Levofloxacin MIC fold difference, +TXA11114: 16 fold
  Levofloxacin MIC, +TXA11114: 1 µg/mL
[5]; MRSN #15566
  Levofloxacin MIC fold difference, +TXA11114: 32 fold
  Levofloxacin MIC, +TXA11114: 0.25 µg/mL
[5]; MRSN #16344
  Levofloxacin MIC fold difference, +TXA11114: 16 fold
  Levofloxacin MIC, +TXA11114: 0.5 µg/mL
[5]; MRSN #369569
  Levofloxacin MIC fold difference, +TXA11114: 8 fold
  Levofloxacin MIC, +TXA11114: 4 µg/mL

Reference: PMC13114161 (Antibiotics, 2026)
